From PubChem BioAssay (NCI)
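In this assay, cells in 96-well plates receive the compound at five concentrations for 48 hours. Endpoints are linearly interpolated between the surrounding concentrations. Definition used: TGI = concentration required for complete inhibition of growth.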

Assays:
Experiment in all cases: NCI tumour cell line growth inhibition, 48 h
OVCAR-3 ovarian = test system: OVCAR-3 ovarian
MDA-N = test system: MDA-N
KM12 colon = test system: KM12 colon
SN12C renal = test system: SN12C renal
NCI-H23 lung = test system: NCI-H23 lung
HT29 colon = test system: HT29 colon
SK-OV-3 ovarian = test system: SK-OV-3 ovarian
SF-295 CNS = test system: SF-295 CNS
UACC-257 melanoma = test system: UACC-257 melanoma
TK-10 renal = test system: TK-10 renal
UACC-62 melanoma = test system: UACC-62 melanoma
SNB-19 CNS = test system: SNB-19 CNS
MCF7 breast = test system: MCF7 breast
K-562 leukemia = test system: K-562 leukemia
OVCAR-5 ovarian = test system: OVCAR-5 ovarian
LOX IMVI melanoma = test system: LOX IMVI melanoma
A549 NSCLC = test system: A549 NSCLC
HCC-2998 colon = test system: HCC-2998 colon
MOLT-4 leukemia = test system: MOLT-4 leukemia
SK-MEL-28 melanoma = test system: SK-MEL-28 melanoma
NCI-H226 lung = test system: NCI-H226 lung
CAKI-1 renal = test system: CAKI-1 renal
SK-MEL-2 melanoma = test system: SK-MEL-2 melanoma
SW-620 colon = test system: SW-620 colon
NCI-H522 lung = test system: NCI-H522 lung
DU-145 prostate = test system: DU-145 prostate
EKVX NSCLC = test system: EKVX NSCLC
M14 melanoma = test system: M14 melanoma
MDA-MB-231 breast = test system: MDA-MB-231 breast
MDA-MB-435 = test system: MDA-MB-435
HS 578T breast = test system: HS 578T breast
HCT-15 colon = test system: HCT-15 colon
RXF 393 renal = test system: RXF 393 renal
T-47D breast = test system: T-47D breast
SR leukemia = test system: SR leukemia
SF-268 CNS = test system: SF-268 CNS
SK-MEL-5 melanoma = test system: SK-MEL-5 melanoma
NCI-H460 lung = test system: NCI-H460 lung
HL-60(TB) leukemia = test system: HL-60(TB) leukemia
SF-539 CNS = test system: SF-539 CNS
HOP-62 NSCLC = test system: HOP-62 NSCLC
OVCAR-4 ovarian = test system: OVCAR-4 ovarian
HOP-92 NSCLC = test system: HOP-92 NSCLC
U251 CNS = test system: U251 CNS
UO-31 renal = test system: UO-31 renal
PC-3 prostate = test system: PC-3 prostate
RPMI-8226 leukemia = test system: RPMI-8226 leukemia
IGROV1 ovarian = test system: IGROV1 ovarian
CCRF-CEM leukemia = test system: CCRF-CEM leukemia
ACHN renal = test system: ACHN renal
COLO 205 colon = test system: COLO 205 colon
SNB-75 CNS = test system: SNB-75 CNS
A498 renal = test system: A498 renal
OVCAR-8 ovarian = test system: OVCAR-8 ovarian
NCI/ADR-RES ovarian = test system: NCI/ADR-RES ovarian
MALME-3M melanoma = test system: MALME-3M melanoma

## Nc1nc2cc(COc3ccc(C(=O)O)cc3)ccc2nc1-c1ccccc1
OVCAR-3 ovarian
  TGI: > 10 µM
MDA-N
  TGI: > 10 µM
KM12 colon
  TGI: > 10 µM
SN12C renal
  TGI: > 10 µM
NCI-H23 lung
  TGI: > 10 µM
HT29 colon
  TGI: > 10 µM
SK-OV-3 ovarian
  TGI: > 10 µM
SF-295 CNS
  TGI: > 10 µM
UACC-257 melanoma
  TGI: > 10 µM
TK-10 renal
  TGI: > 10 µM
UACC-62 melanoma
  TGI: > 10 µM
SNB-19 CNS
  TGI: > 10 µM
MCF7 breast
  TGI: > 10 µM
K-562 leukemia
  TGI: > 10 µM
OVCAR-5 ovarian
  TGI: > 10 µM
LOX IMVI melanoma
  TGI: > 10 µM
A549 NSCLC
  TGI: > 10 µM
HCC-2998 colon
  TGI: > 10 µM
MOLT-4 leukemia
  TGI: > 10 µM
SK-MEL-28 melanoma
  TGI: > 10 µM
NCI-H226 lung
  TGI: > 10 µM
CAKI-1 renal
  TGI: > 10 µM
SK-MEL-2 melanoma
  TGI: > 10 µM
SW-620 colon
  TGI: > 10 µM
NCI-H522 lung
  TGI: > 10 µM
DU-145 prostate
  TGI: > 10 µM
EKVX NSCLC
  TGI: > 10 µM
M14 melanoma
  TGI: > 10 µM
MDA-MB-231 breast
  TGI: > 10 µM
MDA-MB-435
  TGI: > 10 µM
HS 578T breast
  TGI: > 10 µM
HCT-15 colon
  TGI: > 10 µM
RXF 393 renal
  TGI: > 10 µM
T-47D breast
  TGI: > 10 µM
SR leukemia
  TGI: > 10 µM
SF-268 CNS
  TGI: > 10 µM
SK-MEL-5 melanoma
  TGI: > 10 µM
NCI-H460 lung
  TGI: > 10 µM
HL-60(TB) leukemia
  TGI: > 10 µM
SF-539 CNS
  TGI: > 10 µM
HOP-62 NSCLC
  TGI: > 10 µM
OVCAR-4 ovarian
  TGI: > 10 µM
HOP-92 NSCLC
  TGI: > 10 µM
U251 CNS
  TGI: > 10 µM
UO-31 renal
  TGI: > 10 µM
PC-3 prostate
  TGI: > 10 µM
RPMI-8226 leukemia
  TGI: > 10 µM
IGROV1 ovarian
  TGI: > 10 µM
CCRF-CEM leukemia
  TGI: > 10 µM
ACHN renal
  TGI: > 10 µM
COLO 205 colon
  TGI: > 10 µM
SNB-75 CNS
  TGI: > 10 µM

## CS(C)(=O)=Nn1c(=O)n2n(c1=O)[C@H]1CC[C@@H]2C1
OVCAR-3 ovarian
  TGI: > 100 µM
A498 renal
  TGI: > 100 µM
MDA-N
  TGI: > 100 µM
KM12 colon
  TGI: > 100 µM
NCI-H23 lung
  TGI: > 100 µM
HT29 colon
  TGI: > 100 µM
SK-OV-3 ovarian
  TGI: > 100 µM
SF-295 CNS
  TGI: > 100 µM
UACC-257 melanoma
  TGI: > 100 µM
TK-10 renal
  TGI: > 100 µM
OVCAR-8 ovarian
  TGI: > 100 µM
UACC-62 melanoma
  TGI: > 100 µM
NCI/ADR-RES ovarian
  TGI: > 100 µM
SNB-19 CNS
  TGI: > 100 µM
MCF7 breast
  TGI: > 100 µM
K-562 leukemia
  TGI: > 100 µM
OVCAR-5 ovarian
  TGI: > 100 µM
LOX IMVI melanoma
  TGI: > 100 µM
A549 NSCLC
  TGI: > 100 µM
MOLT-4 leukemia
  TGI: > 100 µM
SK-MEL-28 melanoma
  TGI: > 100 µM
NCI-H226 lung
  TGI: > 100 µM
CAKI-1 renal
  TGI: > 100 µM
SK-MEL-2 melanoma
  TGI: > 100 µM
SW-620 colon
  TGI: > 100 µM
NCI-H522 lung
  TGI: > 100 µM
DU-145 prostate
  TGI: > 100 µM
EKVX NSCLC
  TGI: > 100 µM
M14 melanoma
  TGI: > 100 µM
MDA-MB-231 breast
  TGI: > 100 µM
MDA-MB-435
  TGI: > 100 µM
HS 578T breast
  TGI: > 100 µM
HCT-15 colon
  TGI: > 100 µM
RXF 393 renal
  TGI: > 100 µM
T-47D breast
  TGI: > 100 µM
SR leukemia
  TGI: > 100 µM
SF-268 CNS
  TGI: > 100 µM
SK-MEL-5 melanoma
  TGI: > 100 µM
MALME-3M melanoma
  TGI: > 100 µM
NCI-H460 lung
  TGI: > 100 µM
HL-60(TB) leukemia
  TGI: > 100 µM
SF-539 CNS
  TGI: > 100 µM
HOP-62 NSCLC
  TGI: > 100 µM
HOP-92 NSCLC
  TGI: > 100 µM
U251 CNS
  TGI: > 100 µM
UO-31 renal
  TGI: > 100 µM
PC-3 prostate
  TGI: > 100 µM
RPMI-8226 leukemia
  TGI: > 100 µM
IGROV1 ovarian
  TGI: > 100 µM
CCRF-CEM leukemia
  TGI: > 100 µM
ACHN renal
  TGI: > 100 µM
COLO 205 colon
  TGI: > 100 µM
SNB-75 CNS
  TGI: > 100 µM
